According to patent US9265771B2, “Method for treating Lyme disease” (Zoetis Services LLC, priority 2012, dated 2016):

Legend:
B. burgdorferi = test: Study A: Quantitative C6 (QC6) antibody ELISA in tick-infected dogs; type: in vivo, beagle dogs; conditions: Convenia Rx Days 83 and 97
Text: Three outer surface proteins (Osp) on B. burgdorferi are important for diagnosis and prevention, and are expressed by the organism in response to its local environment. […] OspF is another surface protein that is generally observed in late-stage disease. The C in […] refers to a 25-amino acid, C6 peptide in the sixth invariable region of an outer membrane lipoprotein (VIsE). Antibody against C6 is highly accurate as a serologic diagnosis of Lyme disease independent of a subject's (e.g., canine) vaccination status. Further, the generation of C6 antibodies implies an active infection with viable spirochetes. Serological methods for detecting B. burgdorfer/Lyme disease were conducted using the IDEXX qualitative SNAP-4Dx ELISA and the Quantitative C6 (Quant C6 or QC6) diagnostic kits, which are enzyme linked immunosorbent assays against the previously described 25-amino-acid C6 peptide. QC6 ELISA data, units/mL, are useful for guidance in initiating and evaluating response to therapy (See Levy S A, O'Connor T P, Hanscom J L, Shields P, et al. Quantitative measurement of a C6 antibody following antibiotic treatment of Borrelia burgdorferi antibody-positive, nonclinical dogs. Clin Vacc Immunol 2008; 15(1):115-119 and Littman M P, Goldstein R E, Labato M A, et al. ACVIM Small Animal Concensus Statement on Lyme Disease in Dogs: Diagnosis, Treatment and Prevention. J Vet Intern Med 2006; 20: 422-434).
Twenty-three adult female beagle dogs were used in this study; all were sero-negative for Borrelia, not vaccinated with any Borrelia spp vaccines, and acclimated at the study facility for seven days prior to any study activities. The study was conducted under National Research Council guidelines (1996. Dogs were randomized to a non-infected control (n=7 dogs) group, or infected groups (n=8 dogs/region) using ticks from two regions of the USA, Region A (New England (NE), i.e., Rhode Island) and Region B (Midwest (MW), i.e., Wisconsin). Dogs were infected on Day 0 with up to 30 Ixodes scapularis ticks per dog. Tick attachment was monitored daily and after nine days, remaining ticks were harvested and all dogs were treated with two topical applications of an approved acaricide observing a 30-day interval between applications. Dogs were monitored 21-days post-challenge for pyrexia, and the entire post-challenge period for clinical signs of Lyme disease (lameness, ataxia, anorexia, lymphadenopathy and depression).
Blood was collected from each dog weekly to Day 28, then every two-weeks for the remainder of the study (166 days). Serum antibodies to Borrelia were assayed using SNAP-4Dx and QC6 ELISA. Two skin punch biopsies were collected near tick attachment sites from each dog every 28 days post-challenge for bacterial culture.
Comparisons included serology, skin culture results and joint pathology.

[1] = test system: B. burgdorferi outer surface protein OspF; test: Study B: fluorescent-bead-based multiplex assay, antibodies against OspF; type: in vivo, beagle dogs; conditions: for Multiplex Assay OspF: No. Dogs > Positive Threshold (# dogs > 1500): 8 dogs/group
Procedure: Thirty-two (18 male and 14 female) beagle dogs were sero-negative for Borrelia burgdorferi, not vaccinated with any Borrelia spp vaccines, and acclimated at the study facility for seven days. The study was conducted under National Research Council guidelines (1996). […] Field-caught Ixodes from the northeast USA were placed on the dogs without containment chambers for 10 days; after ticks fed to repletion, dogs were treated with two applications of an approved topical acaricide with a 30-day interval between applications.
Forty days post-challenge, and prior to antibiotic treatments, blood was collected from each dog as were two skin biopsy punch samples near tick attachment sites. Blood was collected approximately monthly post-treatment. Skin biopsies were taken near the tick attachment site on Days 48/49, 118, 146, 180, and 315. Serum antibodies to Borrelia were assayed using the IDEXX SNAP-4Dx and QC6 ELISA. In cooperation with Cornell University, serum samples were analyzed using fluorescent-bead-based multiplex assays detecting antibodies against B. burgdorferi outer surface proteins OspA, OspC, and OspF. […] The skin biopsies were collected for a polymerase chain reaction (PCR; FlaB) assay and cultured for spirochete detection. At the end of the study, blood and skin biopsies were collected and synovial tissue from the joints were harvested at necropsy.
On Day 75 and Day 89 Convenia was administered to the eight dogs in T04 (8 mg/kg bodyweight; subcutaneous injection). The other treated groups received their respective regimens daily and orally for 30 days from Days 75 to 104. […] Dogs in T01 served as infected, untreated, controls.

[2] = following subcutaneous injection; cited from earlier work
[3] = dog, in vivo, sc, 8 mg/kg
Procedure: On Days 83 and 97, Convenia was administered (8 mg/kg bodyweight; subcutaneous injection). Treated dogs, 8 B. burgdorferi-positive and 4 controls, were compared to untreated cohorts (8 B. burgdorferi-positive, and 3 controls).

CO/N=C(\C(=O)N[C@@H]1C(=O)N2C(C(=O)[O-])=C([C@@H]3CCCO3)CS[C@H]12)c1csc(N)n1.[Na+] [Convenia, (6R,7R)-7-[[(2Z)-(2-amino-4-thiazolyl)(methoxyimino)acetyl]-amino]-8-oxo-3-[(2S)-tetrahydro-2-furanyl]-5-thia-1-azabicyclo[4.2.0]oct-2-ene-2-carboxylic acid, monosodium salt]
Mean QC6 Antibody Levels (B. burgdorferi; Group 4 Control (no ticks), Day 0): 0 U/mL | Mean QC6 Antibody Levels (B. burgdorferi; Group 4 Control (no ticks), Day 7): 0 U/mL | Mean QC6 Antibody Levels (B. burgdorferi; Group 4 Control (no ticks), Day 20): 0 U/mL | Mean QC6 Antibody Levels (B. burgdorferi; Group 4 Control (no ticks), Day 27): 0 U/mL | Mean QC6 Antibody Levels (B. burgdorferi; Group 4 Control (no ticks), Day 41): 0 U/mL | Mean QC6 Antibody Levels (B. burgdorferi; Group 4 Control (no ticks), Day 54): 0 U/mL | Mean QC6 Antibody Levels (B. burgdorferi; Group 4 Control (no ticks), Day 69): 0 U/mL | Mean QC6 Antibody Levels (B. burgdorferi; Group 4 Control (no ticks), Day 83): 0 U/mL | Mean QC6 Antibody Levels (B. burgdorferi; Group 4 Control (no ticks), Day 97): 0 U/mL | Mean QC6 Antibody Levels (B. burgdorferi; Group 4 Control (no ticks), Day 111): 0 U/mL | Mean QC6 Antibody Levels (B. burgdorferi; Group 4 Control (no ticks), Day 125): 0 U/mL | Mean QC6 Antibody Levels (B. burgdorferi; Group 4 Control (no ticks), Day 138): 0 U/mL | Mean QC6 Antibody Levels (B. burgdorferi; Group 4 Control (no ticks), Day 153): 0 U/mL | Mean QC6 Antibody Levels (B. burgdorferi; Group 4 Control (no ticks), Day 166): 0 U/mL | Mean QC6 Antibody Levels (B. burgdorferi; Group 5 NE Ticks, Day 0 (infestation)): 0 U/mL | Mean QC6 Antibody Levels (B. burgdorferi; Group 5 NE Ticks, Day 7 (pre-treatment)): 0 U/mL | Mean QC6 Antibody Levels (B. burgdorferi; Group 5 NE Ticks, Day 20 (pre-treatment)): 148.5 U/mL | Mean QC6 Antibody Levels (B. burgdorferi; Group 5 NE Ticks, Day 27 (pre-treatment)): 148.75 U/mL | Mean QC6 Antibody Levels (B. burgdorferi; Group 5 NE Ticks, Day 41 (pre-treatment)): 239.25 U/mL | Mean QC6 Antibody Levels (B. burgdorferi; Group 5 NE Ticks, Day 54 (pre-treatment)): 209.5 U/mL | Mean QC6 Antibody Levels (B. burgdorferi; Group 5 NE Ticks, Day 69 (pre-treatment)): 270.75 U/mL | Mean QC6 Antibody Levels (B. burgdorferi; Group 5 NE Ticks, Day 83 (first dose)): 122 U/mL | Mean QC6 Antibody Levels (B. burgdorferi; Group 5 NE Ticks, Day 97 (second dose)): 99.5 U/mL | Mean QC6 Antibody Levels (B. burgdorferi; Group 5 NE Ticks, Day 111): 48.25 U/mL | Mean QC6 Antibody Levels (B. burgdorferi; Group 5 NE Ticks, Day 125): 20.5 U/mL | Mean QC6 Antibody Levels (B. burgdorferi; Group 5 NE Ticks, Day 138): 7.75 U/mL | Mean QC6 Antibody Levels (B. burgdorferi; Group 5 NE Ticks, Day 153): 4.25 U/mL | Mean QC6 Antibody Levels (B. burgdorferi; Group 5 NE Ticks, Day 166): 3 U/mL | Mean QC6 Antibody Levels (B. burgdorferi; Group 6 MW Ticks, Day 0 (infestation)): 0 U/mL | Mean QC6 Antibody Levels (B. burgdorferi; Group 6 MW Ticks, Day 7 (pre-treatment)): 0 U/mL | Mean QC6 Antibody Levels (B. burgdorferi; Group 6 MW Ticks, Day 20 (pre-treatment)): 66.5 U/mL | Mean QC6 Antibody Levels (B. burgdorferi; Group 6 MW Ticks, Day 27 (pre-treatment)): 155 U/mL | Mean QC6 Antibody Levels (B. burgdorferi; Group 6 MW Ticks, Day 41 (pre-treatment)): 147.25 U/mL | Mean QC6 Antibody Levels (B. burgdorferi; Group 6 MW Ticks, Day 54 (pre-treatment)): 149.25 U/mL | Mean QC6 Antibody Levels (B. burgdorferi; Group 6 MW Ticks, Day 69 (pre-treatment)): 110.75 U/mL | Mean QC6 Antibody Levels (B. burgdorferi; Group 6 MW Ticks, Day 83 (first dose)): 93.75 U/mL | Mean QC6 Antibody Levels (B. burgdorferi; Group 6 MW Ticks, Day 97 (second dose)): 74.25 U/mL | Mean QC6 Antibody Levels (B. burgdorferi; Group 6 MW Ticks, Day 111): 51.5 U/mL | Mean QC6 Antibody Levels (B. burgdorferi; Group 6 MW Ticks, Day 125): 29 U/mL | Mean QC6 Antibody Levels (B. burgdorferi; Group 6 MW Ticks, Day 138): 22 U/mL | Mean QC6 Antibody Levels (B. burgdorferi; Group 6 MW Ticks, Day 153): 8.25 U/mL | Mean QC6 Antibody Levels (B. burgdorferi; Group 6 MW Ticks, Day 166): 6.5 U/mL | Multiplex Assay OspF: MFI Mean ([1]; Day 48 (pre-treatment)): 922.75 MFI | Multiplex Assay OspF: No. Dogs > Positive Threshold (# dogs > 1500) ([1]; Day 48 (pre-treatment)): 2 | Multiplex Assay OspF: No. Dogs > Positive Threshold (# dogs > 1500) ([1]; Day 48 (pre-treatment), monosodium salt): two | Multiplex Assay OspF: MFI Mean ([1]; Day 111): 704.13 MFI | Multiplex Assay OspF: No. Dogs > Positive Threshold (# dogs > 1500) ([1]; Day 111): 0 | Multiplex Assay OspF: MFI Mean ([1]; Day 145): 306.75 MFI | Multiplex Assay OspF: No. Dogs > Positive Threshold (# dogs > 1500) ([1]; Day 145): 0 | Multiplex Assay OspF: MFI Mean ([1]; Day 179): 270.00 MFI | Multiplex Assay OspF: No. Dogs > Positive Threshold (# dogs > 1500) ([1]; Day 179): 0 | Multiplex Assay OspF: MFI Mean ([1]; Day 221): 227.13 MFI | Multiplex Assay OspF: No. Dogs > Positive Threshold (# dogs > 1500) ([1]; Day 221): 0 | Multiplex Assay OspF: MFI Mean ([1]; Day 251): 221.88 MFI | Multiplex Assay OspF: No. Dogs > Positive Threshold (# dogs > 1500) ([1]; Day 251): 0 | Multiplex Assay OspF: MFI Mean ([1]; Day 281): 225.63 MFI | Multiplex Assay OspF: No. Dogs > Positive Threshold (# dogs > 1500) ([1]; Day 281): 0 | Multiplex Assay OspF: MFI Mean ([1]; Day 314): 239.88 MFI | Multiplex Assay OspF: No. Dogs > Positive Threshold (# dogs > 1500) ([1]; Day 314): 0 | Multiplex Assay OspF: MFI Mean ([1]; Day −15 (pre-infection)): 101.50 MFI | Multiplex Assay OspF: No. Dogs > Positive Threshold (# dogs > 1500) ([1]; Day −15 (pre-infection)): 0 | Antibody-OspF status of dogs ([1]; after Day 48): all dogs negative thereafter | Absorption [2]: rapidly and completely absorbed | Adverse or unexpected events [3]: No adverse or unexpected events
